One test has as its target T1, B-RAF V600E (Homo sapiens, UniProt P15056, V600E).
T1 construct: expressed in transfected cells; host or cells: T-Rex 293 cells (Invitrogen #R71007)
Description: Target protein degradation, assay C: T-Rex 293 cells, HA-BRAF_V600E, 384 well format. It is filed as cell-based. The note with it: T-Rex 293 HA-BRAF_V600E cells, 24 hours, Examples 83-269; for DC50: Assay C; for Dmax: T-REx-293, Assay C. The gist of the method: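 After 24 h exposure to an 11-point 1:3 series (300 nM–5 pM, 0.5% DMSO), fixed T-Rex 293 cells carrying HA-BRAF V600E (induced with 1 ng/mL doxycycline) were stained anti-HA and imaged. DC50 and Dmax were derived from BRAF intensity relative to control, and cytotoxicity from nuclear counts.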

The next test addresses T2, B-RAF G466V (Homo sapiens, UniProt P15056, G466V).
T2 construct: expressed in transfected cells; host or cells: T-Rex 293 cells (Invitrogen #R71007)
The test can be described thus: Target protein degradation, assay D: T-Rex 293 cells, HA-BRAF_G466V, 384 well format. It is filed as cell-based. The note with it: T-Rex 293 HA-BRAF_G466V cells, 24 hours, Examples 83-269; for Dmax: T-REx-293, Assay D. The gist of the method:
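Degradation measured by high-content imaging of anti-HA immunofluorescence in fixed T-Rex 293 cells carrying inducible HA-BRAF G466V (1 ng/mL doxycycline), after 24 h PROTAC exposure at 37 °C over 300 nM–5 pM (1:3, 11 points, 0.5% DMSO). Outputs DC50 and Dmax as % of control; nuclei counts against DMSO wells gauge toxicity.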

SMILES strings stand for the structures.

T2 sequence (P15056 whole entry G466V): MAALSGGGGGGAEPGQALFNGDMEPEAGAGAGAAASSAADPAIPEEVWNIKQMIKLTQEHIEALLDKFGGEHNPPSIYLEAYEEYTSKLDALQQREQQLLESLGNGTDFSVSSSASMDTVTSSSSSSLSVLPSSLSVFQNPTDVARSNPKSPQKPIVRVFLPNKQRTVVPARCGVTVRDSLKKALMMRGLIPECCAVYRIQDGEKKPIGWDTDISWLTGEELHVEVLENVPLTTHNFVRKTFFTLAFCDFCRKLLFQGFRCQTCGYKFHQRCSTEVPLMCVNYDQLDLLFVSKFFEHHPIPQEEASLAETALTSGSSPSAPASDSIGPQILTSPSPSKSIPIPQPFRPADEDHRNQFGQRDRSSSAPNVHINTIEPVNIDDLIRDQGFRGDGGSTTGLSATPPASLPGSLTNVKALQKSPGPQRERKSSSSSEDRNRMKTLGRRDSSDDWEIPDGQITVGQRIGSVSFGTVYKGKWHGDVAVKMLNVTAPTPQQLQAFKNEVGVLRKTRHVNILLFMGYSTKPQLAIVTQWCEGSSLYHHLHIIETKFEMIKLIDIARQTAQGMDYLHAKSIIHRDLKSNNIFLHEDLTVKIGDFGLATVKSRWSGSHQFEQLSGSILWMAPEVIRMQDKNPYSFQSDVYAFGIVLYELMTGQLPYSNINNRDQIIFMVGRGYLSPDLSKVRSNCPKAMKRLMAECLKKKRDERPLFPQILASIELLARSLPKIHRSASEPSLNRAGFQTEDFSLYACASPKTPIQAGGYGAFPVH
T1 sequence (P15056 whole entry V600E): as the sequence (P15056 whole entry G466V) above, with V466G, V600E counted along it

For orientation: DC50 means the midpoint of the concentration-degradation curve. The low end stands for a more potent degrader, the high end for a less potent degrader. Usually Dmax stands for the largest share of the target that was removed. `N#Cc1c(NS(=O)(=O)N2CC[C@@H](F)C2)ccc(F)c1Oc1ccc2ncn(-c3ccc(N4CCN(c5ccc(C(=O)NC6CCC(=O)NC6=O)c(F)c5)CC4)nc3)c(=O)c2c1` (stereo partly drawn) [Example 162, 4-[4-(5-{6-[2-cyano-6-fluoro-3-({[(3R)-3-fluoropyrrolidin-1-yl]sulfonyl}amino)phenoxy]-4-oxo-3,4-dihydroquinazolin-3-yl}pyridin-2-yl)piperazin-1-yl]-N-(2,6-dioxopiperidin-3-yl)-2-fluorobenzamide]: the results for the DC50 at B-RAF V600E and at B-RAF G466V (Assay D) were 5 to 50 nM and no more than 1 nM, respectively. Moreover, the Dmax is 35 to 70% on B-RAF V600E and no more than 35% on B-RAF G466V.
For `N#Cc1c(NS(=O)(=O)N2CC[C@@H](F)C2)ccc(F)c1Oc1ccc2ncn(-c3ccc(N4CCN(CC5CCN(c6ccc7c(c6)CN(C6CCC(=O)NC6=O)C7=O)CC5)CC4)cn3)c(=O)c2c1` (stereo partly drawn) [Example 83, (3R)-N-{2-cyano-3-[(3-{5-[4-({1-[2-(2,6-dioxopiperidin-3-yl)-1-oxo-2,3-dihydro-1H-isoindol-5-yl]piperidin-4-yl}methyl)piperazin-1-yl]pyridin-2-yl}-4-oxo-3,4-dihydroquinazolin-6-yl)oxy]-4-fluorophenyl}-3-fluoropyrrolidine-1-sulfonamide] the same measures were 50 to 500 nM, no more than 1 nM, 35 to 70% and no more than 35%.
On to `N#Cc1c(NS(=O)(=O)N2CC[C@@H](F)C2)ccc(F)c1Oc1ccc2ncn(-c3ccn(C4CC5(C4)CN(CC4CCN(c6ccc7c(c6)CN(C6CCC(=O)NC6=O)C7=O)CC4)C5)n3)c(=O)c2c1` (stereo partly drawn) [Example 97, (3R)-N-{2-cyano-3-[(3-{1-[2-({1-[2-(2,6-dioxopiperidin-3-yl)-1-oxo-2,3-dihydro-1H-isoindol-5-yl]piperidin-4-yl}methyl)-2-azaspiro[3.3]heptan-6-yl]-1H-pyrazol-3-yl}-4-oxo-3,4-dihydroquinazolin-6-yl)oxy]-4-fluorophenyl}-3-fluoropyrrolidine-1-sulfonamide], for which the results for the DC50 on B-RAF V600E and on B-RAF G466V (Assay D) were 50 to 500 nM and 1 to 10 nM, respectively. Moreover, the Dmax at B-RAF V600E and on B-RAF G466V was 35 to 70% throughout.
Regarding `N#Cc1c(NS(=O)(=O)N2CC[C@@H](F)C2)ccc(F)c1Oc1ccc2ncn(-c3ccc(N4CCN(C(=O)C5CCN(c6ccc7c(c6)CN(C6CCC(=O)NC6=O)C7=O)CC5)CC4)cc3)c(=O)c2c1` (single isomer, unassigned) [Example 241, (3R)-N-{2-cyano-3-[(3-{4-[4-(1-{2-[(3R*)-2,6-dioxopiperidin-3-yl]-1-oxo-2,3-dihydro-1H-isoindol-5-yl}piperidine-4-carbonyl)piperazin-1-yl]phenyl}-4-oxo-3,4-dihydroquinazolin-6-yl)oxy]-4-fluorophenyl}-3-fluoropyrrolidine-1-sulfonamide], the DC50 on B-RAF V600E was greater than 500 nM; on B-RAF G466V (Assay D) it was greater than 30 nM. On B-RAF G466V, this compound yielded a Dmax of 35 to 70%.
As to `Cc1c(N2CCC(CN3CCN(c4ccc(-n5cnc6ccc(Oc7c(F)ccc(NS(=O)(=O)N8CC[C@@H](F)C8)c7C#N)cc6c5=O)cc4)CC3)CC2)ccc2c1CN(C1CCC(=O)NC1=O)C2=O` (single isomer, unassigned) [Example 113, (3R)-N-(2-cyano-3-{[3-(4-{4-[(1-{2-[(3R*)-2,6-dioxopiperidin-3-yl]-4-methyl-1-oxo-2,3-dihydro-1H-isoindol-5-yl}piperidin-4-yl)methyl]piperazin-1-yl}phenyl)-4-oxo-3,4-dihydroquinazolin-6-yl]oxy}-4-fluorophenyl)-3-fluoropyrrolidine-1-sulfonamide], the figures for the DC50 at B-RAF V600E and at B-RAF G466V (Assay D) were 50 to 500 nM and 1 to 10 nM, respectively.
With `N#Cc1c(NS(=O)(=O)N2CC[C@@H](F)C2)ccc(F)c1Oc1ccc2ncn(-c3cnc(N4CCCC4CC4CCN(c5ccc6c(c5)C(=O)N(C5CCC(=O)NC5=O)C6=O)CC4)nc3)c(=O)c2c1` (stereo partly drawn) [Example 130, (3R)-N-{2-cyano-3-[(3-{2-[2-({1-[2-(2,6-dioxopiperidin-3-yl)-1,3-dioxo-2,3-dihydro-1H-isoindol-5-yl]piperidin-4-yl}methyl)pyrrolidin-1-yl]pyrimidin-5-yl}-4-oxo-3,4-dihydroquinazolin-6-yl)oxy]-4-fluorophenyl}-3-fluoropyrrolidine-1-sulfonamide], the DC50 at B-RAF V600E was greater than 500 nM; on B-RAF G466V (Assay D), 10 to 30 nM. The Dmax on B-RAF G466V was no more than 35%.
Turning to `N#Cc1c(NS(=O)(=O)N2CC[C@@H](F)C2)ccc(F)c1Oc1ccc2ncn(-c3cccc(N4CCN(CC5CCN(c6ccc7c(c6)CN(C6CCC(=O)NC6=O)C7=O)CC5)CC4)c3)c(=O)c2c1` (stereo partly drawn) [Example 90, (3R)-N-{2-cyano-3-[(3-{3-[4-({1-[2-(2,6-dioxopiperidin-3-yl)-1-oxo-2,3-dihydro-1H-isoindol-5-yl]piperidin-4-yl}methyl)piperazin-1-yl]phenyl}-4-oxo-3,4-dihydroquinazolin-6-yl)oxy]-4-fluorophenyl}-3-fluoropyrrolidine-1-sulfonamide], the results for the DC50 at B-RAF V600E and on B-RAF G466V (Assay D) were 50 to 500 nM and 1 to 10 nM, respectively. For the same compound, the Dmax at B-RAF V600E and at B-RAF G466V was 35 to 70% throughout.
With `N#Cc1c(NS(=O)(=O)N2CC[C@@H](F)C2)ccc(F)c1Oc1ccc2ncn(-c3ccc(N4CCN(CC5CCN(c6ccc(C7CCC(=O)NC7=O)cc6F)CC5)CC4)cc3)c(=O)c2c1` (single isomer, unassigned) [Example 112, (3R)-N-(2-cyano-3-{[3-(4-{4-[(1-{4-[(3R*)-2,6-dioxopiperidin-3-yl]-2-fluorophenyl}piperidin-4-yl)methyl]piperazin-1-yl}phenyl)-4-oxo-3,4-dihydroquinazolin-6-yl]oxy}-4-fluorophenyl)-3-fluoropyrrolidine-1-sulfonamide], the DC50 at B-RAF V600E was in the range of 5 to 50 nM; on B-RAF G466V (Assay D), 1 to 10 nM. In addition, the Dmax on B-RAF V600E and at B-RAF G466V was 35 to 70% each time.
With `CN(CC1CCN(c2ccc(-n3cnc4ccc(Oc5c(F)ccc(NS(=O)(=O)N6CC[C@@H](F)C6)c5C#N)cc4c3=O)cn2)CC1)[C@H]1C[C@H](Oc2ccc3c(c2)C(=O)N([C@@H]2CCC(=O)NC2=O)C3=O)C1` [Example 166, (3R)-N-{2-cyano-4-fluoro-3-[(3-{6-[4-({methyl[(1r,3r)-3-{[2-(2,6-dioxopiperidin-3-yl)-1,3-dioxo-2,3-dihydro-1H-isoindol-5-yl]oxy}cyclobutyl]amino}methyl)piperidin-1-yl]pyridin-3-yl}-4-oxo-3,4-dihydroquinazolin-6-yl)oxy]phenyl}-3-fluoropyrrolidine-1-sulfonamide], the DC50 on B-RAF V600E was greater than 500 nM. Moreover, on B-RAF G466V (Assay D), the “B-RAF G466V DMax (%)” value is listed as “C (C ≤ 35)” and the DC50 fell in the range of 1 to 10 nM.
In the case of `N#Cc1c(NS(=O)(=O)N2CC[C@@H](F)C2)ccc(F)c1Oc1ccc2ncn(-c3ccc(N4CC(CN5CC(c6ccc7c(c6)CN([C@@H]6CCC(=O)NC6=O)C7=O)C5)C4)cc3)c(=O)c2c1` [Example 205, (3R)-N-(2-cyano-3-{[3-(4-{3-[(3-{2-[(3R)-2,6-dioxopiperidin-3-yl]-1-oxo-2,3-dihydro-1H-isoindol-5-yl}azetidin-1-yl)methyl]azetidin-1-yl}phenyl)-4-oxo-3,4-dihydroquinazolin-6-yl]oxy}-4-fluorophenyl)-3-fluoropyrrolidine-1-sulfonamide], the DC50 at B-RAF V600E was 50 to 500 nM; at B-RAF G466V (Assay D), 1 to 10 nM. Besides, the Dmax on B-RAF V600E and on B-RAF G466V was no more than 35% each time.
In the case of `N#Cc1c(NS(=O)(=O)N2CC[C@@H](F)C2)ccc(F)c1Oc1ccc2ncn(-c3ccc(N4CCN(CC5CCN(c6cc7c(c(C(F)(F)F)c6)C(=O)N(C6CCC(=O)NC6=O)C7)CC5)CC4)cc3)c(=O)c2c1` (stereo partly drawn) [Example 266, (3R)-N-{2-cyano-3-[(3-{4-[4-({1-[2-(2,6-dioxopiperidin-3-yl)-1-oxo-7-(trifluoromethyl)-2,3-dihydro-1H-isoindol-5-yl]piperidin-4-yl}methyl)piperazin-1-yl]phenyl}-4-oxo-3,4-dihydroquinazolin-6-yl)oxy]-4-fluorophenyl}-3-fluoropyrrolidine-1-sulfonamide], the values for the DC50 at B-RAF V600E and at B-RAF G466V (Assay D) were 50 to 500 nM and greater than 30 nM, respectively. On B-RAF V600E, this compound came in with a Dmax of 35 to 70%.
For the compound `N#Cc1c(NS(=O)(=O)N2CC[C@@H](F)C2)ccc(F)c1Oc1ccc2ncn(-c3ccc(N4CCN(CCCOc5ccc6c(c5)C(=O)N(C5CCC(=O)NC5=O)C6=O)CC4)nc3)c(=O)c2c1` (stereo partly drawn) [Example 164, (3R)-N-{2-cyano-3-[(3-{6-[4-(3-{[2-(2,6-dioxopiperidin-3-yl)-1,3-dioxo-2,3-dihydro-1H-isoindol-5-yl]oxy}propyl)piperazin--1-yl]pyridin-3-yl}-4-oxo-3,4-dihydroquinazolin-6-yl)oxy]-4-fluorophenyl}-3-fluoropyrrolidine-1-sulfonamide], the 50% degradation concentration (DC50) is 50 to 500 nM on B-RAF V600E and no more than 1 nM at B-RAF G466V (Assay D). Further, the values for the Dmax at B-RAF V600E and at B-RAF G466V were 35 to 70% and no more than 35%, respectively.
For the compound `CCN(C)S(=O)(=O)Nc1ccc(F)c(Oc2ccc3ncn(-c4ccc(N5CCN(CC6CCN(c7ccc(C8CCC(=O)NC8=O)cc7F)CC6)CC5)cc4)c(=O)c3c2)c1C#N` (stereo not drawn) [Example 110, 2-[(3-{4-[4-({1-[4-(2,6-dioxopiperidin-3-yl)-2-fluorophenyl]piperidin-4-yl}methyl)piperazin-1-yl]phenyl}-4-oxo-3,4-dihydroquinazolin-6-yl)oxy]-6-{[ethyl(methyl)sulfamoyl]amino}-3-fluorobenzonitrile], at B-RAF V600E, the 50% degradation concentration (DC50) fell in the range of 50 to 500 nM and the maximal degradation (Dmax) fell in the range of 35 to 70%. Moreover, at B-RAF G466V (Assay D), the DC50 was greater than 30 nM.

For the origin of these results see patent US11957759B1, “Rapidly accelerated fibrosarcoma (RAF) degrading compounds and associated methods of use” (Arvinas Operations, Inc., priority 2022, dated 2024).
